Test results from US10183014B2, “Ocular formulations for drug-delivery and protection of the anterior segment of the eye” (PanOptica, Inc., priority 2014, dated 2019).
Like-named read-outs stand apart in the source and are kept apart here.

Assay: Ocular pharmacokinetics of formulations, Example 20-4
Format: in vivo, Dutch Belted rabbits
Conditions: Day 5, 1 hr post dose
Experimental: The study design (Table 18-1) consisted of forty-nine (49) Dutch Belted rabbits, each receiving a 30 μL bilateral topical ocular dose.
Ocular sampling occurred one hour following the first daily dose on Day 5 for all groups. Whole blood samples using K2EDTA as an anticoagulant were collected from all animals on Day 5, 1 hour post dose. The whole blood was placed on ice until samples were spun in a centrifuge to separate the plasma. Aqueous humor, conjunctiva, cornea, central retina, peripheral retina, central choroid, and peripheral choroid samples were collected following necropsy. Samples were then frozen at −70° C. or lower. For all Groups 1-16, plasma, central retina, central choroid, and cornea samples were assayed for PAN-90806.

`Cl.NC(=O)c1c(OCc2c(F)cc(Br)cc2F)nsc1NC(=O)NCCCCN1CCCC1` [Compound-I, 3-[(4-bromo-2,6-difluorophenyl)methoxy]-5-[[[[4-(1-pyrrolidinyl)butyl]amino]carbonyl]amino]-4-isothiazolecarboxamide hydrochloride] showed a concentration at 1 h (Dutch Belted, rabbit, central choroid, topical, 4 mg/mL (30 μL per eye, bilateral), pH 6, Group 3: 4 mg/mL Salt, eye drops solution (control), pH 6, QD, read-out: Central Choroid concentration) of 181 nM, a concentration at 1 h (Dutch Belted, rabbit, central choroid, topical, 4 mg/mL (30 μL per eye, bilateral), Group 16: 4 mg/mL Salt suspension, PSD 30 μm/XL, TRIS 0.60%, glycerol 2%, HEC 0.2%, HPMC 0.08%, VitK3 1 μM, pH 7, QD, read-out: Central Choroid concentration) of 208 nM and a concentration at 1 h (Dutch Belted, rabbit, central choroid, topical, 30 μL per eye of 4 mg/mL suspension, Group 7: 4 mg/mL Salt suspension, PSD 30 μm/XL, TRIS 0.60%, glycerol 2%, HEC 0.3%, Tylox 0.04%, VitK3 1 μM, pH 6, QD, read-out: Central Choroid concentration) of 142 nM. For the same compound, the concentration at 1 h (Dutch Belted, rabbit, central choroid, topical, 30 μL per eye of 4 mg/mL suspension, Group 9: 4 mg/mL Salt suspension, PSD 30 μm/XL, TRIS 0.60%, glycerol 2%, HEC 0.3%, Tylox 0.04%, VitK3 1 μM, pH 7, QD, read-out: Central Choroid concentration) was 224 nM, the concentration at 1 h (Dutch Belted, rabbit, central choroid, topical, 30 μL per eye of 6 mg/mL suspension, Group 6: 6 mg/mL Salt suspension, PSD 30 μm/XL, TRIS 0.60%, glycerol 2%, HEC 0.2%, HPMC 0.08%, VitK3 1 μM, pH 6, QD, read-out: Central Choroid concentration) was 243 nM and the concentration at 1 h (Dutch Belted, rabbit, central retina, topical, 0.3 mg/mL (30 μL per eye, bilateral), pH 6, Group 1: 0.3 mg/mL Salt, pH 6, BID, read-out: Central Retina concentration) was 16.3 nM. The concentration at 1 h (Dutch Belted, rabbit, central retina, topical, 1 mg/mL (30 μL per eye, bilateral), pH 6, Group 2: 1 mg/mL Salt, eye drops solution (control), pH 6, QD, read-out: Central Retina concentration) was 34.7 nM, the concentration at 1 h (Dutch Belted, rabbit, central retina, topical, 4 mg/mL (30 μL per eye, bilateral), pH 6, Group 3: 4 mg/mL Salt, eye drops solution (control), pH 6, QD, read-out: Central Retina concentration) was 83.7 nM and the concentration at 1 h (Dutch Belted, rabbit, central retina, topical, 4 mg/mL (30 μL per eye, bilateral), Group 16: 4 mg/mL Salt suspension, PSD 30 μm/XL, TRIS 0.60%, glycerol 2%, HEC 0.2%, HPMC 0.08%, VitK3 1 μM, pH 7, QD, read-out: Central Retina concentration) was 74.4 nM. The concentration at 1 h (Dutch Belted, rabbit, central retina, topical, 30 μL per eye of 6 mg/mL suspension, Group 6: 6 mg/mL Salt suspension, PSD 30 μm/XL, TRIS 0.60%, glycerol 2%, HEC 0.2%, HPMC 0.08%, VitK3 1 μM, pH 6, QD, read-out: Central Retina concentration) was 136 nM, the concentration at 1 h (Dutch Belted, rabbit, cornea, topical, 0.3 mg/mL (30 μL per eye, bilateral), pH 6, Group 1: 0.3 mg/mL Salt, pH 6, BID, read-out: Cornea concentration) was 3330 nM and the concentration at 1 h (Dutch Belted, rabbit, cornea, topical, 1 mg/mL (30 μL per eye, bilateral), pH 6, Group 2: 1 mg/mL Salt, eye drops solution (control), pH 6, QD, read-out: Cornea concentration) was 7060 nM. The concentration at 1 h (Dutch Belted, rabbit, cornea, topical, 4 mg/mL (30 μL per eye, bilateral), pH 6, Group 3: 4 mg/mL Salt, eye drops solution (control), pH 6, QD, read-out: Cornea concentration) was 15900 nM, the concentration at 1 h (Dutch Belted, rabbit, cornea, topical, 4 mg/mL (30 μL per eye, bilateral), Group 16: 4 mg/mL Salt suspension, PSD 30 μm/XL, TRIS 0.60%, glycerol 2%, HEC 0.2%, HPMC 0.08%, VitK3 1 μM, pH 7, QD, read-out: Cornea concentration) was 14700 nM and the concentration at 1 h (Dutch Belted, rabbit, cornea, topical, 30 μL per eye of 6 mg/mL suspension, QD, pH 6, Group 6: 6 mg/mL Salt suspension, PSD 30 μm/XL, TRIS 0.60%, glycerol 2%, HEC 0.2%, HPMC 0.08%, VitK3 1 μM, pH 6, QD, read-out: Cornea concentration) was 14400 nM. It also gave a concentration at 1 h (Dutch Belted, rabbit, plasma, topical, 1 mg/mL (30 μL per eye, bilateral), pH 6, Group 2: 1 mg/mL Salt, eye drops solution (control), pH 6, QD, read-out: Plasma concentration) of 2.67 nM, a concentration at 1 h (Dutch Belted, rabbit, plasma, topical, 4 mg/mL (30 μL per eye, bilateral), pH 6, Group 3: 4 mg/mL Salt, eye drops solution (control), pH 6, QD, read-out: Plasma concentration) of 4.5 nM and a concentration at 1 h (Dutch Belted, rabbit, plasma, topical, 30 μL per eye of 4 mg/mL suspension, Group 7: 4 mg/mL Salt suspension, PSD 30 μm/XL, TRIS 0.60%, glycerol 2%, HEC 0.3%, Tylox 0.04%, VitK3 1 μM, pH 6, QD, read-out: Plasma concentration) of 5.56 nM. For the same compound, the concentration at 1 h (Dutch Belted, rabbit, plasma, topical, 30 μL per eye of 6 mg/mL suspension, QD, pH 6, Group 6: 6 mg/mL Salt suspension, PSD 30 μm/XL, TRIS 0.60%, glycerol 2%, HEC 0.2%, HPMC 0.08%, VitK3 1 μM, pH 6, QD, read-out: Plasma concentration) was 9.98 nM, the Plasma concentration (Group 1: 0.3 mg/mL Salt, pH 6, BID, LLOQ = 0.00188 μM) was “<LLOQ” and the “Central Choroid concentration” value (Group 1: 0.3 mg/mL Salt, pH 6, BID, LLOQ = 0.0563 μM) was “<LLOQ”. The concentration at 1 h (Group 7: 4 mg/mL Salt suspension, PSD 30 μm/XL, TRIS 0.60%, glycerol 2%, HEC 0.3%, Tylox 0.04%, VitK3 1 μM, pH 6, QD, read-out: Central Retina concentration) was 69.7 nM, the Plasma concentration (Group 8: 4 mg/mL Salt suspension, PSD 30 μm/XL, TRIS 0.60%, glycerol 2%, HEC 0.2%, Tylox 0.04%, VitK3 1 μM, pH 6, QD) was 6.62 nM and the concentration at 1 h (Group 8: 4 mg/mL Salt suspension, PSD 30 μm/XL, TRIS 0.60%, glycerol 2%, HEC 0.2%, Tylox 0.04%, VitK3 1 μM, pH 6, QD, read-out: Central Choroid concentration) was 152 nM. The concentration at 1 h (Group 8: 4 mg/mL Salt suspension, PSD 30 μm/XL, TRIS 0.60%, glycerol 2%, HEC 0.2%, Tylox 0.04%, VitK3 1 μM, pH 6, QD, read-out: Central Retina concentration) was 90.1 nM, the Plasma concentration (Group 9: 4 mg/mL Salt suspension, PSD 30 μm/XL, TRIS 0.60%, glycerol 2%, HEC 0.3%, Tylox 0.04%, VitK3 1 μM, pH 7, QD) was 7.38 nM and the concentration at 1 h (Group 9: 4 mg/mL Salt suspension, PSD 30 μm/XL, TRIS 0.60%, glycerol 2%, HEC 0.3%, Tylox 0.04%, VitK3 1 μM, pH 7, QD, read-out: Central Retina concentration) was 102 nM.
